One data set has as its system B7H3. As to the kind of experiment: B7H3 expression by HDAC6 inhibitor, MSI versus MSS colorectal cancer cell lines. The class given is cell-based. The following applies: IC50 and half-IC50; MSI DLD-1, HCT116, MC38; MSS SW620, HT29, CT26; FIG. 15. As to the method: (§1) The IC50 values of the HDAC6 inhibitor (Nexturastat A) in three MSI colorectal cancer cell lines (DLD-1, HCT116, and MC38) and three MSS colorectal cancer cell lines (SW620, HT29, and CT26) were determined. The cells were then treated with the inhibitor at the IC50 and half-IC50 concentrations (concentration corresponding to ½ of the IC50 value), and the expression levels of the immune checkpoint proteins PD-L1 and B7H3 were measured.

For data set [1], the system named is PD-L1. The data set is described as follows: PD-L1 expression (RNA and protein) after HDAC inhibitor treatment in colorectal cell lines. Format: cell-based, human, mouse. The following applies: for PD-L1 expression in MSS compared with MSI colorectal cell lines: MSS compared with MSI colorectal cell lines (summary statement); for PD-L1 expression upon HDAC inhibitor treatment, MSS cell lines: SW620, LS513, and CT26, IC50 and ½ IC50, 48 hours, HDAC3 inhibitor compared with HDAC6 and HDAC8 (FIG. 2), HDAC8 inhibitor concentration-dependent (FIG. 6). As to the method: (§2) The HDAC3 inhibitor experiment was conducted by harvesting cells 48 hours after the treatment at each inhibitor concentration and obtaining RNA and proteins. RGFP966 (S7229) purchased from SellekChem was used as an HDAC3 inhibitor. Specifically, SW620, LS513, DLD-1, CT26, and MC38 were individually cultured, and the experiments were conducted using the IC50 and ½ IC50 concentration on the basis of the previously determined IC50 concentration. RNA and protein samples were collected 48 hours after RGFP966 treatment. The RNA samples were isolated using the TRIzol, isopropanol, and chloroform, and the protein samples were collected by lysis with a lysis buffer (Roche, 4719956001). RNA was synthesized into cDNA using a cDNA synthesis kit (Bioneer, K-2044-B), and real-time PCR was performed using a method according to SYBR (Applied Biosystems, 4367659). Proteins were quantified using the Bradford assay (Bio-Rad, 50000006), and subjected to loading, transfer, blocking (3% skim milk; BD, 232100), primary antibody (24 h, 4 °C), and secondary antibody sequentially, thereby developing PD-L1.
The HDAC6 inhibitor experiment was conducted by the same method as in the HDAC3 inhibitor experiment of Experimental Example 3, and Nexturastat A HDAC6 selective inhibitor purchased from SellekChem was used as an HDAC6 inhibitor.
The HDAC8 inhibitor experiment was conducted by the same method as in the HDAC3 inhibitor experiment of Experimental Example 3, and PCI-34051 HDAC8 selective inhibitor purchased from SellekChem was used as an HDAC8 inhibitor.
The HDAC6 and HDAC8 inhibitor experiment was conducted by harvesting cells 48 hours after the treatment and then obtaining RNA and proteins.

The next data set has as its system CT26 tumor. The data set is described as follows: CD8 T cell-dependent CT26 tumor growth suppression with anti-CD8a pre-treatment. The following applies: concluded from anti-CD8a blocking. Format: in vivo, BALB/C mice. As to the method:
To examine the hypothesis that an HDAC6 inhibitor suppresses CT26 tumor growth in a CD8 T cell-dependent manner, an experiment on the combination with anti-CD8a antibody was further conducted by pre-treatment with anti-CD8a antibody, which binds to CD8 T cells. The experiment was conducted by intraperitoneally administering an anti-CD8a antibody to animals from 3 days before tumor cell injection at 3-day intervals to inhibit CD8 T cells and administering an HDAC6 inhibitor and an anti-PD-L1 antibody.
Specifically, the experiment was conducted on a total of four groups: a control group, an anti-CD8a group, an HDAC6i (Next A)+anti-PD-L1 group, and an HDAC6i (Next A)+anti-PD-L1+anti-CD8a group. CT26 cells (1×10^6) for a cell line, Nexturastat A (SellekChem) as HDAC6i (HDAC6 inhibitor), #BE0101 (Bioxcell) as an anti-PD-L1 antibody, and #BE017 (Bioxcell) as an anti-CD8a antibody were used. BALB/C mice were used. In addition, 6 mice for the control group, 6 mice for the anti-CD8a group, 6 mice for the HDAC6i (Next A)+anti-PD-L1 group, and 8 mice for the HDAC6i (Next A)+anti-PD-L1+anti-CD8a group were used. […]

Data set [2] can be described thus: Body weight of mice, HDAC6 inhibitor animal experiment. The class given is in vivo, BALB/C mice. The following applies: HDAC6i 20 mpk i.p. daily; FIG. 9D. On the procedure: The animal experiment using an HDAC6 inhibitor was conducted using a total of three groups, a control group (control), an HDAC6i (Next A) group, and an HDAC6i (Next A)+anti-PD-L1 group. Nexturastat A (SellekChem) was used as HDAC6i (HDAC6 inhibitor), and #BE0101 (Bioxcell) was used as an anti-PD-L1 antibody. CT26 (1×10^6) cells and BALB/C mice were used. Three mice for the control group, three mice for the HDAC6i group, and four mice for the HDAC6i+anti-PD-L1 group were used.
• HDAC6i group: HDAC6i 20 mpk (mg/kg) intraperitoneally injected daily • HDAC6i+anti-PD-L1 group: HDAC6i 20 mpk intraperitoneally injected every day and anti-PD-L1 antibody 10 mpk intraperitoneally injected three times per week.

Data set [3] relates to PD-L1. As to the kind of experiment: PD-L1 expression by HDAC6 inhibitor, MSI versus MSS colorectal cancer cell lines. Format: cell-based. The following applies: IC50 and half-IC50; MSI DLD-1, HCT116, MC38; MSS SW620, HT29, CT26; FIG. 15. On the procedure:
as §1

The test system of data set [4] is PD-L1. The data set is described as follows: PD-L1 expression after HDAC3 inhibitor treatment in mouse cells. The conditions noted are these: IC50 and ½ IC50, 48 hours, FIG. 2. Format: cell-based. On the procedure:
as §2

The values that follow come from patent US20260345553A1, “COMPOSITION FOR TREATING CANCER COMPRISING HISTONE DEACETYLASE INHIBITOR, AND ANTICANCER ADJUVANT FOR CANCER IMMUNOTHERAPY” (SAMSUNG LIFE PUBLIC WELFARE FOUNDATION, priority 2022, published 2026).

On to `CCCCN(Cc1ccc(C(=O)NO)cc1)C(=O)Nc1ccccc1` [Nexturastat A], for which, in the data set on B7H3, the “B7H3 expression in MSS compared with MSI cell line” value is given as “distinct increase tendencies”. The “PD-L1 expression at the RNA and protein levels upon HDAC6 inhibitor treatment” value in the data set on PD-L1 [1] (MSS cell lines SW620, LS513, HT29, and CT26, depending on the concentration, 48 hours, FIG. 4) is “increase in PD-L1 expression at the RNA and protein levels”. In addition, the “PD-L1 expression in MSS compared with MSI colorectal cell lines” value with PD-L1 [1] is on record as “further up-regulated”. Moreover, in the data set on CT26 tumor, the “CD8 T cell dependence of CT26 tumor growth suppression” value was “suppressed CT26 tumor growth in a CD8 T cell-dependent manner”. The “body weight of the animals” value in data set [2] is recorded as “not reduced”. Besides, in the data set on PD-L1 [3], the “PD-L1 expression in MSS compared with MSI cell line” value is on record as “distinct increase tendencies”.
Turning to `COc1ccc(Cn2ccc3ccc(C(=O)NO)cc32)cc1` [PCI-34051], in the data set with PD-L1 [1], the “PD-L1 expression in MSS compared with MSI colorectal cell lines” value is recorded as “further up-regulated”; the “PD-L1 expression upon HDAC inhibitor treatment, MSS cell lines” value is “increase in PD-L1 expression at the RNA and protein levels”.
Consider `Nc1cc(F)ccc1NC(=O)/C=C/c1cnn(C/C=C/c2ccccc2)c1` [RGFP966], for which the “PD-L1 expression upon HDAC inhibitor treatment, MSS cell lines” value with PD-L1 [1] is given as “small increases”. The “PD-L1 expression upon HDAC3 inhibitor treatment, mouse cells” value in the data set on PD-L1 [4] is “decrease tendency”.
